According to patent US20250122208A1, “CHEMOKINE RECEPTOR MODULATORS AND USES THEREOF” (RAPT THERAPEUTICS, INC., priority 2023, published 2025):

Biological target: T1, CCR4 receptor (Homo sapiens, UniProt P51679)
T1 construct: beta-galactosidase enzyme-fragment tag; From own knowledge, PathHunter uses a ProLink/enzyme-donor fragment, usually at the receptor's C-terminus; expressed in transfected cells; host or cells: CHO-K1
T1 sequence (P51679 1-360): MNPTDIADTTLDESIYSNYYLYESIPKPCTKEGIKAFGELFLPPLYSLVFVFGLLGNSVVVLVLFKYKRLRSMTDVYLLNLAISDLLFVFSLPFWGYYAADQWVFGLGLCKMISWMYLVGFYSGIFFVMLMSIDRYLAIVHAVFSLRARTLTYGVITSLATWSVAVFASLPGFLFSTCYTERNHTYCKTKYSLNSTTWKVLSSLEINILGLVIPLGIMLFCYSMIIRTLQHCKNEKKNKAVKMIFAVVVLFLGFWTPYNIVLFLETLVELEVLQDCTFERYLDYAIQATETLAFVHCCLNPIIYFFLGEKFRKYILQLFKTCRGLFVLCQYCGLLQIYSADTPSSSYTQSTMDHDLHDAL
Assay: CCR4 antagonist activity in Beta-Arrestin Cellular Assay (PathHunter, CCL22 challenge)
Assay type: cell-based
Details: CHO-K1 cells expressing the CCR4 receptor; CCL22 at EC80 (15 nM), 90 minutes; 30 min pre-incubation; read-out: Potency (CCR4 antagonist IC50 in the β-arrestin assay)
Method: Example 39. Determination of CCR4 antagonist activity in Beta-Arrestin Cellular Assay
CCR4 Antagonistic Activity was assessed in Beta-Arrestin Cellular Assay. Compounds were assessed in CHO-K1 cells expressing the CCR4 receptor modified to enable β-glactosidase detection of β-arrestin agonist activity stimulated by CCL22 in a chemiluminescence assay. Cells were seeded in a total volume of 20 μL into white walled, 384-well microplates and incubated at 37° C. prior to testing. Cells were pre-incubated with test compound for 30 min at 37° C. followed by agonist challenge with CCL22 at the EC80 concentration (15 nM) for 90 minutes. Assay signal was generated through a single addition of 12.5 or 15 μL ([…]) of PathHunter Detection reagent cocktail, followed by a one-hour incubation at room temperature. Microplates were read following signal generation with a PerkinElmer Envision™ instrument for chemiluminescent signal detection. Antagonist activity was analyzed using CBIS data analysis suite (ChemInnovation, CA). Antagonist activity was characterized as percentage inhibition calculated using the following formula:
An IC50 of >500 nM is designated as Potency C, an IC50 of between 500 nM and 100 nM is designated as Potency B and an IC50 of <100 nM is designated as Potency A.

Row | SMILES | IC50 [nM]
1 | C[C@@H](Nc1cc(N2CCC([C@H]3CCCNC3)CC2)nc2ncnn12)c1ccc(Cl)cc1Cl [Example 1, 5-((R)-[3,4′-bipiperidin]-1′-yl)-N-((R)-1-(2,4-dichlorophenyl)ethyl)-[1,2,4]triazolo[1,5-a]pyrimidin-7-amine] | < 100
2 | Cc1cc(F)ccc1[C@@H](C)Nc1cc(N2CCC([C@H]3CCCN([C@H]4C[C@](C)(C(=O)O)C4)C3)CC2)nc2ccnn12 [Example 29, (1R,3r)-3-((R)-1′-(7-(((R)-1-(4-fluoro-2-methylphenyl)ethyl)amino)pyrazolo[1,5-a]pyrimidin-5-yl)-[3,4′-bipiperidin]-1-yl)-1-methylcyclobutane-1-carboxylic acid] | < 100
3 | C[C@@H](Nc1cc(N2CCC([C@H]3CCCN([C@H]4C[C@](C)(C(=O)O)C4)C3)CC2)nc2nccn12)c1ccc(Cl)cc1Cl [Example 36, (1R,3r)-3-((R)-1′-(5-(((R)-1-(2,4-dichlorophenyl)ethyl)amino)imidazo[1,2-a]pyrimidin-7-yl)-[3,4′-bipiperidin]-1-yl)-1-methylcyclobutane-1-carboxylic acid] | < 100
4 | C[C@@H](Nc1cc(N2CCC([C@H]3CCCN(C4CC(S(C)(=O)=O)C4)C3)CC2)nc2ncnn12)c1ccc(Cl)cc1Cl (mixture of isomers) [Example 21, N-((R)-1-(2,4-dichlorophenyl)ethyl)-5-((R)-1-(3-(methylsulfonyl)cyclobutyl)-[3,4′-bipiperidin]-1′-yl)-[1,2,4]triazolo[1,5-a]pyrimidin-7-amine] | < 100
5 | Cc1ccc([C@@H](C)Nc2cc(N3CCC([C@H]4CCCN([C@H]5C[C@](C)(C(=O)O)C5)C4)CC3)nc3ccnn23)c(Cl)c1 [Example 31, (1R,3r)-3-((R)-1′-(7-(((R)-1-(2-chloro-4-methylphenyl)ethyl)amino)pyrazolo[1,5-a]pyrimidin-5-yl)-[3,4′-bipiperidin]-1-yl)-1-methylcyclobutane-1-carboxylic acid] | < 100
6 | CNS(=O)(=O)CCCN1CCC[C@H](C2CCN(c3cc(N[C@H](C)c4ccc(Cl)cc4Cl)n4ncnc4n3)CC2)C1 [Example 20, 3-((R)-1′-(7-(((R)-1-(2,4-dichlorophenyl)ethyl)amino)-[1,2,4]triazolo[1,5-a]pyrimidin-5-yl)-[3,4′-bipiperidin]-1-yl)-N-methylpropane-1-sulfonamide] | < 100
7 | C[C@@H](Nc1cc(N2CCC([C@H]3CCCN(Cc4nc[nH]n4)C3)CC2)nc2ncnn12)c1ccc(Cl)cc1Cl [Example 5, 5-((R)-1-((1H-1,2,4-triazol-3-yl)methyl)-[3,4′-bipiperidin]-1′-yl)-N-((R)-1-(2,4-dichlorophenyl)ethyl)-[1,2,4]triazolo[1,5-a]pyrimidin-7-amine] | < 100
8 | C[C@@H](Nc1cc(N2CCC([C@H]3CCCN([C@H]4C[C@](C)(C(=O)O)C4)C3)CC2)nc2ncnn12)c1ccc(Cl)cc1F [Example 37, (1R,3r)-3-((R)-1′-(7-(((R)-1-(4-chloro-2-fluorophenyl)ethyl)amino)-[1,2,4]triazolo[1,5-a]pyrimidin-5-yl)-[3,4′-bipiperidin]-1-yl)-1-methylcyclobutane-1-carboxylic acid] | < 100
9 | Cc1cc(F)ccc1[C@@H](C)Nc1cc(N2CCC([C@H]3CCCN([C@H]4C[C@](C)(C(=O)O)C4)C3)CC2)nc2ncnn12 [Example 28, (1R,3r)-3-((R)-1′-(7-(((R)-1-(4-fluoro-2-methylphenyl)ethyl)amino)-[1,2,4]triazolo[1,5-a]pyrimidin-5-yl)-[3,4′-bipiperidin]-1-yl)-1-methylcyclobutane-1-carboxylic acid] | 100 to 500
10 | Cc1cc(Cl)ccc1[C@@H](C)Nc1cc(N2CCC([C@H]3CCCN([C@H]4C[C@](C)(C(=O)O)C4)C3)CC2)nc2ccnn12 [Example 32, (1R,3r)-3-((R)-1′-(7-(((R)-1-(4-chloro-2-methylphenyl)ethyl)amino)pyrazolo[1,5-a]pyrimidin-5-yl)-[3,4′-bipiperidin]-1-yl)-1-methylcyclobutane-1-carboxylic acid] | < 100
11 | C[C@@H](Nc1cc(N2CCC([C@H]3CCCN(CCS(N)(=O)=O)C3)CC2)nc2ncnn12)c1ccc(Cl)cc1Cl [Example 19, 2-((R)-1′-(7-(((R)-1-(2,4-dichlorophenyl)ethyl)amino)-[1,2,4]triazolo[1,5-a]pyrimidin-5-yl)-[3,4′-bipiperidin]-1-yl)ethane-1-sulfonamide] | < 100
12 | C[C@@H](Nc1cc(N2CCC([C@H]3CCCN(C4CCOCC4)C3)CC2)nc2ncnn12)c1ccc(Cl)cc1Cl [Example 6, N-((R)-1-(2,4-dichlorophenyl)ethyl)-5-((R)-1-(tetrahydro-2H-pyran-4-yl)-[3,4′-bipiperidin]-1′-yl)-[1,2,4]triazolo[1,5-a]pyrimidin-7-amine] | < 100
13 | C[C@@H](Nc1cc(N2CCC([C@H]3CCCN(Cc4ncc[nH]4)C3)CC2)nc2ncnn12)c1ccc(Cl)cc1Cl [Example 4, 5-((R)-1-((1H-imidazol-2-yl)methyl)-[3,4′-bipiperidin]-1′-yl)-N-((R)-1-(2,4-dichlorophenyl)ethyl)-[1,2,4]triazolo[1,5-a]pyrimidin-7-amine] | < 100
14 | C[C@@H](Nc1cc(N2CCC([C@H]3CCCN(CCCO)C3)CC2)nc2ncnn12)c1ccc(Cl)cc1Cl [Example 22, 3-((R)-1′-(7-(((R)-1-(2,4-dichlorophenyl)ethyl)amino)-[1,2,4]triazolo[1,5-a]pyrimidin-5-yl)-[3,4′-bipiperidin]-1-yl)propan-1-ol] | < 100
15 | C[C@@H](Nc1cc(N2CCC([C@H]3CCCN([C@H]4C[C@](C)(C(=O)O)C4)C3)CC2)nc2ncnn12)c1ccc(Cl)cc1Cl [Example 18, (1R,3r)-3-((R)-1′-(7-(((R)-1-(2,4-dichlorophenyl)ethyl)amino)-[1,2,4]triazolo[1,5-a]pyrimidin-5-yl)-[3,4′-bipiperidin]-1-yl)-1-methylcyclobutane-1-carboxylic acid] | 100 to 500
16 | C[C@@H](Nc1cc(N2CCC([C@H]3CCCN([C@H]4C[C@](C)(C(=O)O)C4)C3)CC2)nc2ccnn12)c1ccc(Cl)cc1F [Example 38, (1R,3r)-3-((R)-1′-(7-(((R)-1-(4-chloro-2-fluorophenyl)ethyl)amino)pyrazolo[1,5-a]pyrimidin-5-yl)-[3,4′-bipiperidin]-1-yl)-1-methylcyclobutane-1-carboxylic acid] | < 100
